How the values were obtained:
[1] = The drug is tested on Bacteroides finegoldii strain: DSM17565 for biotransformation. The drug concentrations were measured before and after a 12-h incubation by liquid-chromatography-coupled mass spectrometry (LC–MS); conditions: 2 µM
[2] = akkermansia muciniphila, 12 h, 2 µM
Description: The drug is tested on Akkermansia muciniphila strain: ATCC BAA-835 for biotransformation. The drug concentrations were measured before and after a 12-h incubation by liquid-chromatography-coupled mass spectrometry (LC–MS)

[3] = The drug is tested on Bacteroides caccae strain: ATCC43185 for biotransformation. The drug concentrations were measured before and after a 12-h incubation by liquid-chromatography-coupled mass spectrometry (LC–MS); conditions: 2 µM
[4] = bacteroides thetaiotaomicron, 12 h, 2 µM
Description: The drug is tested on Bacteroides thetaiotaomicron strain: 3731 for biotransformation. The drug concentrations were measured before and after a 12-h incubation by liquid-chromatography-coupled mass spectrometry (LC–MS)

[5] = The drug is tested on Ruminococcus lactaris strain: ATCC29176 for biotransformation. The drug concentrations were measured before and after a 12-h incubation by liquid-chromatography-coupled mass spectrometry (LC–MS); conditions: 2 µM
[6] = The drug is tested on Bacteroides fragilis strain: HMW615 for biotransformation. The drug concentrations were measured before and after a 12-h incubation by liquid-chromatography-coupled mass spectrometry (LC–MS); conditions: 2 µM
[7] = anaerostipes sp., 12 h, 2 µM
Description: The drug is tested on Anaerostipes sp. strain: fecal isolate for biotransformation. The drug concentrations were measured before and after a 12-h incubation by liquid-chromatography-coupled mass spectrometry (LC–MS)

[8] = The drug is tested on Bifidobacterium longum subsp. Infantis strain: CCUG52486 for biotransformation. The drug concentrations were measured before and after a 12-h incubation by liquid-chromatography-coupled mass spectrometry (LC–MS); conditions: 2 µM
[9] = limosilactobacillus reuteri cf48-3a, 12 h, 2 µM
Description: The drug is tested on Lactobacillus reuteri CF48-3A strain: BEI HM-102 for biotransformation. The drug concentrations were measured before and after a 12-h incubation by liquid-chromatography-coupled mass spectrometry (LC–MS)

[10] = parabacteroides distasonis, 12 h, 2 µM
Description: The drug is tested on Parabacteroides distasonis strain: ATCC8503 for biotransformation. The drug concentrations were measured before and after a 12-h incubation by liquid-chromatography-coupled mass spectrometry (LC–MS)

[11] = The drug is tested on Anaerococcus hydrogenalis strain: DSM7454 for biotransformation. The drug concentrations were measured before and after a 12-h incubation by liquid-chromatography-coupled mass spectrometry (LC–MS); conditions: 2 µM
[12] = The drug is tested on Bacteroides sp. WH2 strain: WH2 for biotransformation. The drug concentrations were measured before and after a 12-h incubation by liquid-chromatography-coupled mass spectrometry (LC–MS); conditions: bacteroides sp. wh2, 12 h, 2 µM
[13] = The drug is tested on Odoribacter splanchnicus strain: fecal isolate for biotransformation. The drug concentrations were measured before and after a 12-h incubation by liquid-chromatography-coupled mass spectrometry (LC–MS); conditions: 2 µM
[14] = The drug is tested on Parabacteroides merdae strain: ATCC43184 for biotransformation. The drug concentrations were measured before and after a 12-h incubation by liquid-chromatography-coupled mass spectrometry (LC–MS); conditions: 2 µM
[15] = The drug is tested on Eubacterium ventriosum strain: ATCC27560 for biotransformation. The drug concentrations were measured before and after a 12-h incubation by liquid-chromatography-coupled mass spectrometry (LC–MS); type: ADME; design: dose 2 uM, timepoint 0 vs 12 hours; conditions: 2 µM
[16] = segatella copri, 12 h, 2 µM
Description: The drug is tested on Prevotella copri strain: DSM18205 for biotransformation. The drug concentrations were measured before and after a 12-h incubation by liquid-chromatography-coupled mass spectrometry (LC–MS)

[17] = The drug is tested on Blautia luti strain: DSM14534 for biotransformation. The drug concentrations were measured before and after a 12-h incubation by liquid-chromatography-coupled mass spectrometry (LC–MS); type: ADME; design: dose 2 uM, timepoint 0 vs 12 hours; conditions: 2 µM
[18] = parabacteroides johnsonii, 12 h, 2 µM
Description: The drug is tested on Parabacteroides johnsonii strain: DSM18315 for biotransformation. The drug concentrations were measured before and after a 12-h incubation by liquid-chromatography-coupled mass spectrometry (LC–MS)

[19] = bacteroides intestinalis, 12 h, 2 µM
Description: The drug is tested on Bacteroides intestinalis strain: DSM17393 for biotransformation. The drug concentrations were measured before and after a 12-h incubation by liquid-chromatography-coupled mass spectrometry (LC–MS)

[20] = The drug is tested on Providencia stuartii strain: ATCC25827 for biotransformation. The drug concentrations were measured before and after a 12-h incubation by liquid-chromatography-coupled mass spectrometry (LC–MS); conditions: 2 µM

SMILES	Bacterial Biotransformation [1]	Bacterial Biotransformation [2]	Bacterial Biotransformation [3]	Bacterial Biotransformation [4]	Bacterial Biotransformation [5]	Bacterial Biotransformation [6]	Bacterial Biotransformation [7]	Bacterial Biotransformation [8]	Bacterial Biotransformation [9]	Bacterial Biotransformation [10]	Bacterial Biotransformation [11]	Bacterial Biotransformation [12]	Bacterial Biotransformation [13]	Bacterial Biotransformation [14]	Bacterial Biotransformation [15]	Bacterial Biotransformation [16]	Bacterial Biotransformation [17]	Bacterial Biotransformation [18]	Bacterial Biotransformation [19]	Bacterial Biotransformation [20]
CCCC1O[C@@H]2C[C@H]3[C@@H]4CCC5=CC(=O)C=C[C@]5(C)[C@H]4[C@@H](O)C[C@]3(C)[C@]2(C(=O)CO)O1 (some centres undefined) [BUDESONIDE]	Compound NOT metabolized	Compound NOT metabolized	Compound NOT metabolized	Compound metabolized	Compound NOT metabolized	Compound metabolized	Compound NOT metabolized	Compound NOT metabolized	Compound NOT metabolized	Compound NOT metabolized	Compound NOT metabolized	Compound NOT metabolized	Compound metabolized	Compound metabolized	Compound NOT metabolized	Compound NOT metabolized	Compound NOT metabolized	Compound metabolized	Compound NOT metabolized	–
CC(=O)O[C@]1(C(C)=O)CC[C@H]2[C@@H]3C=C(Cl)C4=CC(=O)[C@@H]5C[C@@H]5[C@]4(C)[C@H]3CC[C@@]21C [CYPROTERONE ACETATE]	Compound NOT metabolized	Compound NOT metabolized	Compound NOT metabolized	Compound metabolized	Compound NOT metabolized	Compound metabolized	Compound NOT metabolized	Compound NOT metabolized	Compound NOT metabolized	Compound metabolized	Compound NOT metabolized	Compound NOT metabolized	Compound metabolized	Compound NOT metabolized	Compound NOT metabolized	Compound NOT metabolized	Compound NOT metabolized	Compound metabolized	Compound metabolized	–
Cc1nc2n(c(=O)c1CCN1CCC(c3noc4cc(F)ccc34)CC1)CCCC2O (centres undefined) [PALIPERIDONE]	Compound metabolized	Compound metabolized	Compound metabolized	Compound metabolized	Compound metabolized	Compound NOT metabolized	Compound metabolized	Compound metabolized	Compound NOT metabolized	Compound metabolized	Compound metabolized	Compound NOT metabolized	Compound metabolized	Compound metabolized	–	Compound metabolized	Compound metabolized	Compound metabolized	Compound metabolized	–
CC(C)(C#N)c1cc(Cn2cncn2)cc(C(C)(C)C#N)c1 [ANASTROZOLE]	Compound NOT metabolized	Compound metabolized	Compound metabolized	Compound NOT metabolized	Compound NOT metabolized	Compound NOT metabolized	Compound NOT metabolized	Compound NOT metabolized	Compound NOT metabolized	–	Compound NOT metabolized	Compound NOT metabolized	Compound metabolized	Compound metabolized	Compound NOT metabolized	Compound metabolized	Compound NOT metabolized	Compound metabolized	Compound NOT metabolized	Compound NOT metabolized
CC(NC(C)(C)C)C(=O)c1cccc(Cl)c1 (centres undefined) [BUPROPION]	Compound NOT metabolized	Compound NOT metabolized	Compound NOT metabolized	Compound NOT metabolized	Compound NOT metabolized	Compound NOT metabolized	Compound NOT metabolized	–	Compound NOT metabolized	Compound NOT metabolized	Compound NOT metabolized	Compound NOT metabolized	Compound metabolized	Compound metabolized	–	Compound NOT metabolized	Compound NOT metabolized	Compound NOT metabolized	–	–
CC[C@H](C)C(=O)O[C@H]1C[C@@H](C)C=C2C=C[C@H](C)[C@H](CC[C@@H]3C[C@@H](O)CC(=O)O3)[C@H]21 [LOVASTATIN]	–	Compound NOT metabolized	Compound NOT metabolized	Compound NOT metabolized	Compound NOT metabolized	Compound metabolized	Compound NOT metabolized	Compound NOT metabolized	Compound NOT metabolized	Compound metabolized	Compound metabolized	Compound NOT metabolized	Compound metabolized	Compound metabolized	Compound NOT metabolized	Compound NOT metabolized	Compound NOT metabolized	Compound metabolized	Compound metabolized	–

Reference: ChEMBL document CHEMBL5303573, “Mapping human microbiome drug metabolism by gut bacteria and their genes” (Nature, 2019)
